Reference: ChEMBL document CHEMBL1129806, “Diastereoselective synthesis of trans-2-(1-triphenylmethyl-1H-imidazol-4-yl)cyclopropanecarboxylic acids: key intermediates for the preparation of potent and chiral histamine H3 receptor agents” (Bioorg Med Chem Lett, 1997)

Target: Histamine H3 receptor (Rattus norvegicus, UniProt Q9QYN8)
Assay: Histamine H3 receptor affinity of compound was determined in rat cortical membranes using the H3 selective agonist ligand, [3H]N-alpha-methylhistamine
Type: cell membranes, Membrane

Chain of Histamine H3 receptor (Q9QYN8 whole entry): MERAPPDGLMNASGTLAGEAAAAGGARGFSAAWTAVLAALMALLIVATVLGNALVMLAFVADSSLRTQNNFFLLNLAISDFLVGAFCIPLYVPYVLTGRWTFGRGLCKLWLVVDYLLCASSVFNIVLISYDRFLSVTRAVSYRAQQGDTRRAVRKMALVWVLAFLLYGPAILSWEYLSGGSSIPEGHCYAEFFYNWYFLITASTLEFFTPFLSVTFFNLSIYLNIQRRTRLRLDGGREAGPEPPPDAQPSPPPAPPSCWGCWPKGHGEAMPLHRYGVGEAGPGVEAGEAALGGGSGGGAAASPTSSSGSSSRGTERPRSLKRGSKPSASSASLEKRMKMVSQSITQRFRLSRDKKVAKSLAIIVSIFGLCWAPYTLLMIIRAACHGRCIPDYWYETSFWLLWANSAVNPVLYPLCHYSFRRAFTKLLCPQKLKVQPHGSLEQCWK

Ic1ccc(COCCCc2c[nH]cn2)cc1 [IODOPROXYFAN]
Ki: 0.3 nM
